Reference: patent publication US12365667B2, “Sulfone pyridine alkyl amide-substituted heteroaryl compounds” (BRISTOL-MYERS SQUIBB COMPANY, priority 2017, dated 2025)

Tested on: IFNα-induced STAT phosphorylation (pSTAT5) in human whole blood
Assay: IFNα-Induced STAT Phosphorylation in Human Whole Blood
Assay type: cell-based
Details: 1 h incubation with compound, 1000 U/mL recombinant human IFNα A/D for 15 min, pSTAT5 in CD3 positive population, read-out: IFNα-Induced Stat Phosph. (IC50)
Protocol: IFNα-Induced STAT Phosphorylation in Human Whole Blood
After an hour long incubation with compound, human whole blood (drawn with either EDTA or ACD-A as anti-coagulant) was stimulated with 1000 U/mL recombinant human IFNα A/D (R&D Systems 11200-2) for 15 min. The stimulation was stopped by adding Fix/Lyse buffer (BD 558049). Cells were stained with a CD3 FITC antibody (BD 555916), washed, and permeabilized on ice using Perm III buffer (BD 558050). Cells were then stained with an Alexa-Fluor 647 pSTAT5 (pY694) antibody (BD 612599) for 30 min prior to analysis on the FACS Canto II. The amount of pSTAT5 expression was quantitated by median fluorescence intensity after gating on the CD3 positive population.

| Structure (SMILES) | IC50 |
| --- | --- |
| CNC(=O)c1nnc(Nc2cnc(OC)cn2)cc1Nc1ncccc1S(C)(=O)=O [Example 80] | 57 nM |
| CCOc1ccc(Nc2cc(Nc3ncccc3S(C)(=O)=O)c(C(=O)NC)nn2)nn1 [Example 83] | 76 nM |
| CNC(=O)c1nnc(Nc2cc(COC)ncn2)cc1Nc1ncccc1S(C)(=O)=O [Example 84] | 42 nM |
| CNC(=O)c1nnc(Nc2ccc(C)nn2)cc1Nc1ncccc1S(C)(=O)=O [Example 85] | 11 nM |
| CNC(=O)c1nnc(Nc2ccc(F)nn2)cc1Nc1ncccc1S(C)(=O)=O [Example 86] | 40 nM |
| CNC(=O)c1nnc(Nc2cc(F)c(F)cn2)cc1Nc1ncccc1S(C)(=O)=O [Example 87] | 417 nM |
| CNC(=O)c1nnc(Nc2cc(C(F)(F)F)n(C)n2)cc1Nc1ncccc1S(C)(=O)=O [Example 88] | 47 nM |
| CNC(=O)c1nnc(Nc2ccc(-n3cc(Cl)ccc3=O)cn2)cc1Nc1ncccc1S(C)(=O)=O [Example 89] | 32 nM |
| CNC(=O)c1nnc(Nc2ccc(Cl)nn2)cc1Nc1ncccc1S(C)(=O)=O [Example 90] | 13 nM |
| CNC(=O)c1nnc(Nc2ccc(C(F)(F)F)cn2)cc1Nc1ncccc1S(C)(=O)=O [Example 91] | 43 nM |
| CNC(=O)c1nnc(Nc2ccc(-n3cccc(C(F)(F)F)c3=O)cn2)cc1Nc1ncccc1S(C)(=O)=O [Example 92] | 13 nM |
| CNC(=O)c1nnc(Nc2cnc(C(F)(F)F)cn2)cc1Nc1ncccc1S(C)(=O)=O [Example 95] | 133 nM |
| CNC(=O)c1nnc(Nc2cc(COC)ccn2)cc1Nc1ncccc1S(C)(=O)=O [Example 96] | 4 nM |
| CNC(=O)c1nnc(Nc2ccc(N3CCOCC3=O)cn2)cc1Nc1ncccc1S(C)(=O)=O [Example 97] | 13 nM |
| CNC(=O)c1nnc(Nc2cc(C)nc(C)n2)cc1Nc1ncccc1S(C)(=O)=O [Example 98] | 49 nM |
| CNC(=O)c1nnc(Nc2cnc3c(n2)CCCCC3)cc1Nc1ncccc1S(C)(=O)=O [Example 99] | 44 nM |
| CNC(=O)c1nnc(Nc2ccc(N3CC(C)OC(C)C3)cn2)cc1Nc1ncccc1S(C)(=O)=O (stereo not drawn) [Example 100] | 15 nM |
| CNC(=O)c1nnc(Nc2ccc(-c3ccccc3)cn2)cc1Nc1ncccc1S(C)(=O)=O [Example 102] | 138 nM |
| CNC(=O)c1nnc(Nc2ccc(N3CCOC(C)(C)C3)cn2)cc1Nc1ncccc1S(C)(=O)=O [Example 105] | 9 nM |
| CCCC(=O)Nc1cc(Nc2ncccc2S(C)(=O)=O)c(C(=O)NC)nn1 [Example 108] | 167 nM |
| CNC(=O)c1nnc(Nc2ccc(N3CCOCC3)nn2)cc1Nc1ncccc1S(C)(=O)=O [Example 110] | 20 nM |
| CNC(=O)c1nnc(Nc2ccnc(-c3ccccc3)n2)cc1Nc1ncccc1S(C)(=O)=O [Example 111] | 248 nM |

| Structure (SMILES) | IC50 |
| --- | --- |
| CNC(=O)c1nnc(Nc2cccc(C(F)(F)F)n2)cc1Nc1ncccc1S(C)(=O)=O [Example 113] | 88 nM |
| CNC(=O)c1nnc(Nc2cncc(-c3ccccc3)n2)cc1Nc1ncccc1S(C)(=O)=O [Example 115] | 190 nM |
| CNC(=O)c1nnc(Nc2cccc(-c3ccccc3)n2)cc1Nc1ncccc1S(C)(=O)=O [Example 117] | 334 nM |
| CNC(=O)c1nnc(NC(=O)CCOC)cc1Nc1ncccc1S(C)(=O)=O [Example 118] | 131 nM |
| CCCCC(=O)Nc1cc(Nc2ncccc2S(C)(=O)=O)c(C(=O)NC)nn1 [Example 119] | 73 nM |
| CCNC(=O)Nc1cc(Nc2ncccc2S(C)(=O)=O)c(C(=O)NC)nn1 [Example 121] | 39 nM |
| CNC(=O)c1nnc(NC(=O)NC(C)(C)C)cc1Nc1ncccc1S(C)(=O)=O [Example 122] | 156 nM |
| CNC(=O)c1nnc(NC(=O)C=C2CCOCC2)cc1Nc1ncccc1S(C)(=O)=O [Example 123] | 183 nM |
| CNC(=O)c1nnc(Nc2cncc(C(F)(F)F)n2)cc1Nc1ncccc1S(C)(=O)=O [Example 127] | 302 nM |
| CNC(=O)c1nnc(NC(=O)C=C2CCCCC2)cc1Nc1ncccc1S(C)(=O)=O [Example 128] | 61 nM |
| CNC(=O)c1nnc(NC(=O)C(C)C)cc1Nc1ncccc1S(C)(=O)=O [Example 131] | 434 nM |
| CNC(=O)c1nnc(NC(=O)OC(C)C)cc1Nc1ncccc1S(C)(=O)=O [Example 134] | 296 nM |
| CCCOC(=O)Nc1cc(Nc2ncccc2S(C)(=O)=O)c(C(=O)NC)nn1 [Example 136] | 349 nM |
| CNC(=O)c1nnc(Nc2ccnc(C(F)(F)F)n2)cc1Nc1ncccc1S(C)(=O)=O [Example 138] | 447 nM |
| CNC(=O)c1nnc(Nc2ccc(OC(F)(F)F)cn2)cc1Nc1ncccc1S(C)(=O)=O [Example 140] | 34 nM |
| CCC(O)(CC)c1cnc(Nc2cc(Nc3ncccc3S(C)(=O)=O)c(C(=O)NC)nn2)cc1Cl [Example 147] | 231 nM |
| CCOc1cc(Nc2cc(Nc3ncccc3S(C)(=O)=O)c(C(=O)NC)nn2)ncc1C(C)(C)O [Example 149] | 141 nM |
| CNC(=O)c1nnc(Nc2ccc(C(C)(C)OC)cn2)cc1Nc1ncccc1S(C)(=O)=O [Example 157] | 21 nM |
| CNC(=O)c1nnc(Nc2ccc(OCCOC)cn2)cc1Nc1ncccc1S(C)(=O)=O [Example 158] | 10 nM |
| CNC(=O)c1nnc(Nc2ccccn2)cc1Nc1ncccc1S(C)(=O)=O [Example 160] | 11 nM |
| CNC(=O)c1nnc(Nc2cc(C3CC3)nc(C)n2)cc1Nc1ncccc1S(C)(=O)=O [Example 165] | 23 nM |

The next lines start with the values.

| IC50 | Structure (SMILES) |
| --- | --- |
| 1570 nM | CNC(=O)c1nnc(NC(=O)COCc2ccccc2)cc1Nc1ncccc1S(C)(=O)=O [Example 133] |
| 893 nM | CNC(=O)c1nnc(NC(=O)CC(C)(C)C)cc1Nc1ncccc1S(C)(=O)=O [Example 139] |
| 408 nM | CCOc1cc(Nc2cc(Nc3ncccc3S(C)(=O)=O)c(C(=O)NC)nn2)ncc1C(=O)NC1CC1 [Example 148] |
| 209 nM | CCOC(=O)Nc1cc(Nc2ncccc2S(C)(=O)=O)c(C(=O)NC)nn1 [Example 132] |
| 142 nM | CNC(=O)c1nnc(NC(=O)OC)cc1Nc1ncccc1S(C)(=O)=O [Example 112] |
| 124 nM | CNC(=O)c1nnc(Nc2ccc(-c3ccccc3)nn2)cc1Nc1ncccc1S(C)(=O)=O [Example 106] |
| 95 nM | CNC(=O)c1nnc(Nc2cc(COC)ncn2)cc1Nc1ncccc1S(C)(=O)=O [Example 101] |
| 88 nM | CNC(=O)c1nnc(NC(=O)CC2CC2)cc1Nc1ncccc1S(C)(=O)=O [Example 164] |
| 80 nM | CNC(=O)c1nnc(NC(=O)CC(C)C)cc1Nc1ncccc1S(C)(=O)=O [Example 129] |
| 62 nM | CNC(=O)c1nnc(NC(=O)C=C(C)C)cc1Nc1ncccc1S(C)(=O)=O [Example 120] |
| 60 nM | CNC(=O)c1nnc(Nc2ccn(C3CC3)n2)cc1Nc1ncccc1S(C)(=O)=O [Example 167] |
| 47 nM | CNC(=O)c1nnc(Nc2cc(Cl)n(C)n2)cc1Nc1ncccc1S(C)(=O)=O [Example 161] |
| 46 nM | CNC(=O)c1nnc(Nc2ccc(-c3c(F)cccc3F)nn2)cc1Nc1ncccc1S(C)(=O)=O [Example 104] |
| 40 nM | CNC(=O)c1nnc(Nc2cccc(C3CC3)n2)cc1Nc1ncccc1S(C)(=O)=O [Example 152] |
| 37 nM | CNC(=O)c1nnc(Nc2cccc(C)n2)cc1Nc1ncccc1S(C)(=O)=O [Example 82] |
| 28 nM | CNC(=O)c1nnc(Nc2cnc(C)cn2)cc1Nc1ncccc1S(C)(=O)=O [Example 93] |
| 24 nM | CCOC(=O)NC(C)(C)c1ccc(Nc2cc(Nc3ncccc3S(C)(=O)=O)c(C(=O)NC)nn2)nc1 [Example 79] |
| 16 nM | CNC(=O)c1nnc(Nc2ccc(N3CCOCC3C)cn2)cc1Nc1ncccc1S(C)(=O)=O (stereo not drawn) [Example 103] |
| 13 nM | CCOC(=O)N1CCN(c2ccc(Nc3cc(Nc4ncccc4S(C)(=O)=O)c(C(=O)NC)nn3)nc2)CC1 [Example 107] |
| 7 nM | CNC(=O)c1nnc(Nc2cc(COC)ccn2)cc1Nc1ncccc1S(C)(=O)=O [Example 156] |
| 6 nM | CNC(=O)c1nnc(Nc2ccc(COC)cn2)cc1Nc1ncccc1S(C)(=O)=O [Example 154] |
| 3 nM | CNC(=O)c1nnc(Nc2ccc(N3CCOCC3)cn2)cc1Nc1ncccc1S(C)(=O)=O [Example 81] |
| 2 nM | CNC(=O)c1nnc(Nc2ccc(C(C)(C)O)c(F)n2)cc1Nc1ncccc1S(C)(=O)=O [Example 151] |

Same assay, conditions: Homo sapiens, 1 h incubation with compound, 1000 U/mL recombinant human IFNα A/D for 15 min, pSTAT5 in CD3 positive population, read-out: IFNα-Induced Stat Phosph. (IC50)

| Structure (SMILES) | IC50 |
| --- | --- |
| [2H]C([2H])([2H])NC(=O)c1nnc(NC(=O)C2CC2)cc1Nc1ncccc1S(C)(=O)=O [Example 159, 6-(cyclopropanecarboxamido)-N-trideuteromethyl-4-((3-(methylsulfonyl)pyridin-2-yl)amino)pyridazine-3-carboxamide] | 12 nM |
| [2H]C([2H])([2H])NC(=O)c1nnc(NC(C)=O)cc1Nc1ncccc1S(C)(=O)=O [Example 163, 6-acetamido-N-trideuteromethyl-4-((3-(methylsulfonyl)pyridin-2-yl)amino)pyridazine-3-carboxamide] | 95 nM |
| [2H]C([2H])([2H])NC(=O)c1nnc(Nc2ccn(C)n2)cc1Nc1ncccc1S(C)(=O)=O [Example 166, N-trideuteromethyl-6-((1-methyl-1H-pyrazol-3-yl)amino)-4-((3-(methylsulfonyl)pyridin-2-yl)amino)pyridazine-3-carboxamide] | 40 nM |
